Experimental data reported in ChEMBL document CHEMBL5291721, “A preclinical secondary pharmacology resource illuminates target-adverse drug reaction associations of marketed drugs” (Nat Commun, 2023).

How the values were obtained:
[1] = target: T1, Muscarinic acetylcholine receptor M1 (Homo sapiens, UniProt P11229); assay type: functional, cell-based
T1 sequence (P11229 whole entry): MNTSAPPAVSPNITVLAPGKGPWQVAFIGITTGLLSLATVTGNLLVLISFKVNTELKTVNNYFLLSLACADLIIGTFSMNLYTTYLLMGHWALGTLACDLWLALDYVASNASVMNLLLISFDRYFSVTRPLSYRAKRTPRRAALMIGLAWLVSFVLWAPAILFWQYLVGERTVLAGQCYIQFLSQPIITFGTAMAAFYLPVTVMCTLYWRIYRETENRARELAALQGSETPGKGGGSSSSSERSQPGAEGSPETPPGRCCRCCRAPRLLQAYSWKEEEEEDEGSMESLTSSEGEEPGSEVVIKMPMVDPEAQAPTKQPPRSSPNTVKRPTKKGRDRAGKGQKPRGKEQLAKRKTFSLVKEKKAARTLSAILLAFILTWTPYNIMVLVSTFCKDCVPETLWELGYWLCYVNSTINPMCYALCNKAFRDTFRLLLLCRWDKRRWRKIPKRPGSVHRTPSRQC

Estrogen receptor = target: T2, Estrogen receptor (Homo sapiens, UniProt P03372)
T2 sequence (P03372 whole entry): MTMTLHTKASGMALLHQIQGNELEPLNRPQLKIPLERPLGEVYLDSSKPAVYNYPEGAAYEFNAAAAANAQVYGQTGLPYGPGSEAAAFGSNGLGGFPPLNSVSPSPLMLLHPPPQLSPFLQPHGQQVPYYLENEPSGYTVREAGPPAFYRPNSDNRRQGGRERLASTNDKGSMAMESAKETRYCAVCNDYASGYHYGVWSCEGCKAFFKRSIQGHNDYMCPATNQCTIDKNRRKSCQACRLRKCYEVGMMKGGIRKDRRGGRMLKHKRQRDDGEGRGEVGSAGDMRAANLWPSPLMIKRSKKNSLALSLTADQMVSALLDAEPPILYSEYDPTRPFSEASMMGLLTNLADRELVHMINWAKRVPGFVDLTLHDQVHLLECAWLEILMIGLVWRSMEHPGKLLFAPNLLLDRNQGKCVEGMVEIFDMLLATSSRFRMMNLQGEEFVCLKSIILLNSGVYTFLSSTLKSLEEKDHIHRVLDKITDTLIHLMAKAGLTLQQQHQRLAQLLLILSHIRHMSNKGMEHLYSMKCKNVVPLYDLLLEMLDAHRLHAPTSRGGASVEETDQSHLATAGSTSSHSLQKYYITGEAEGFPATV

Progesterone receptor [2] = target: T3, Progesterone receptor (Homo sapiens, UniProt P06401)
T3 sequence (P06401 whole entry): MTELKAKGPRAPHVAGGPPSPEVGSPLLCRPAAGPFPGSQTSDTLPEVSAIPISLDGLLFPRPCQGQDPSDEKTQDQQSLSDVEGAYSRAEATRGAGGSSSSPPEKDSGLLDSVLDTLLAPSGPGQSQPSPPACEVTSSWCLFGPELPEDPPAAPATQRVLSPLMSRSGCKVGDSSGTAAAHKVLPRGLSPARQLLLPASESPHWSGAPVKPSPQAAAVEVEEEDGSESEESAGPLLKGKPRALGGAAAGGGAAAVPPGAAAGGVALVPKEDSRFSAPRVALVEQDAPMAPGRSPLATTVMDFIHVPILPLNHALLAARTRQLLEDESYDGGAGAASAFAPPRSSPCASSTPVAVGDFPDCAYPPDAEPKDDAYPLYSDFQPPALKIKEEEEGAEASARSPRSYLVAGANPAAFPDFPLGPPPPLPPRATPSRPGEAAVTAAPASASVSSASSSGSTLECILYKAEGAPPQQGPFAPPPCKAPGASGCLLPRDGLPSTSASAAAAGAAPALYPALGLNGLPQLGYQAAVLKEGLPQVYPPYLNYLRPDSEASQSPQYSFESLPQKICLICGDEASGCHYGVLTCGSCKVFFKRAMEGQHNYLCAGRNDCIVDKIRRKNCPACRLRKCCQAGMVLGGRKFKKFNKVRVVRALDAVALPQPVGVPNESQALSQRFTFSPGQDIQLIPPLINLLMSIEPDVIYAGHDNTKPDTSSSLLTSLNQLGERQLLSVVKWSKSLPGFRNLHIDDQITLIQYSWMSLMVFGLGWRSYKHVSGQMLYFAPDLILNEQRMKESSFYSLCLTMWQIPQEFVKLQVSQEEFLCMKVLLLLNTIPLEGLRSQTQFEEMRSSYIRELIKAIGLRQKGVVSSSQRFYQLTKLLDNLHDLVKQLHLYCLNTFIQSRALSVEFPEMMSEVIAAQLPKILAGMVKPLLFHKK

[3] = target: Beta-2 adrenergic receptor (Homo sapiens, UniProt P07550); assay type: functional, cell-based
Cannabinoid receptor 1 = Cannabinoid receptor 1 (Homo sapiens, UniProt P21554); assay type: functional, cell-based
Glucocorticoid receptor = target: T4, Glucocorticoid receptor (Homo sapiens, UniProt P04150)
T4 sequence (P04150 whole entry): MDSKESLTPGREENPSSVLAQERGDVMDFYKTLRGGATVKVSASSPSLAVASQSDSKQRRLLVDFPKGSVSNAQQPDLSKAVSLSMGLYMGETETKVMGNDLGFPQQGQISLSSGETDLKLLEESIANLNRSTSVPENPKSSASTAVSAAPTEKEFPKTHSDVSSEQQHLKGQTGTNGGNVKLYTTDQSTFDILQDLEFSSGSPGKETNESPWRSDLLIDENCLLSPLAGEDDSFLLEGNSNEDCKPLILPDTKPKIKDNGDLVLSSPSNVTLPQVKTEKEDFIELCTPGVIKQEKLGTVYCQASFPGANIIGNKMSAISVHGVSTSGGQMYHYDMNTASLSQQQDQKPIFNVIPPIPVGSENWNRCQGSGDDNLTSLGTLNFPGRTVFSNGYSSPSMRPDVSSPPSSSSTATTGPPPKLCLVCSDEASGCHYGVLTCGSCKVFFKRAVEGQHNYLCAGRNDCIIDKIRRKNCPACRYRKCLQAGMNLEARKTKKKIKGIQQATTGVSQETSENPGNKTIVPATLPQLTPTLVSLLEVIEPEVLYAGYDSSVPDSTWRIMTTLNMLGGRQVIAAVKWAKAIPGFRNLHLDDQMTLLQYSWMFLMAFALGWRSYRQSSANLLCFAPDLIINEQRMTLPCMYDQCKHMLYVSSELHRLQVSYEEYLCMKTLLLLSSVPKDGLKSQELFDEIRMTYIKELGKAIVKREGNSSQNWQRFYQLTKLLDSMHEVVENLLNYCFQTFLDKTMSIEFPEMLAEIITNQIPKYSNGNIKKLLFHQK

Mu-type opioid receptor = Mu-type opioid receptor (Homo sapiens, UniProt P35372); experiment: biochemical; assay type: functional
Progesterone receptor [4] = target: T3, Progesterone receptor; assay type: functional
[5] = target: 5-hydroxytryptamine receptor 2B (Homo sapiens, UniProt P41595); assay type: functional, cell-based
Also: assay procedure not described here.

Chain of Cannabinoid receptor 1 (P21554 whole entry): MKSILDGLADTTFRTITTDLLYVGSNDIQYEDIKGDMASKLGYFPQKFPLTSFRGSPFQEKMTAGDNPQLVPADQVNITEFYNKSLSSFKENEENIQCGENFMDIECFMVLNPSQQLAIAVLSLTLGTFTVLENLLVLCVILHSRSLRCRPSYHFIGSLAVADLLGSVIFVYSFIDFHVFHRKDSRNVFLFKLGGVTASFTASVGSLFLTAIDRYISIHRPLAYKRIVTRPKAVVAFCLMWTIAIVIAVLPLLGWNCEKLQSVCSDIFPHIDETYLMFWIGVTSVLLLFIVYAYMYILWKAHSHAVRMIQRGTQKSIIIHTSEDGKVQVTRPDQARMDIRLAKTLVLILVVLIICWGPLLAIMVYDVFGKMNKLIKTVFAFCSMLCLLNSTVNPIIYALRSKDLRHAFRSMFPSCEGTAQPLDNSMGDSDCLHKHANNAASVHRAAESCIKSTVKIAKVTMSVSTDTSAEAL
Chain of Beta-2 adrenergic receptor (P07550 whole entry): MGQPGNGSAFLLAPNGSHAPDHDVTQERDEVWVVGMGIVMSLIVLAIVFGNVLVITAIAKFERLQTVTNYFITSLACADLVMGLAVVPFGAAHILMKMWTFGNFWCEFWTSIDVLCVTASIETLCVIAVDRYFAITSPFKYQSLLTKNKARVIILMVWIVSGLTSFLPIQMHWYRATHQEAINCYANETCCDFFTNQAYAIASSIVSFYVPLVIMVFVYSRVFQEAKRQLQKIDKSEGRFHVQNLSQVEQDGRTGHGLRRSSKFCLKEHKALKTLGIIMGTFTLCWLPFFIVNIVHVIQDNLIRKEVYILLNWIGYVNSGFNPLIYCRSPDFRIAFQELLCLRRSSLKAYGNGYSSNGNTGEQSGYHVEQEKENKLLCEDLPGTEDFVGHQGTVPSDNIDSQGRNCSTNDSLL
Chain of Mu-type opioid receptor (P35372 whole entry): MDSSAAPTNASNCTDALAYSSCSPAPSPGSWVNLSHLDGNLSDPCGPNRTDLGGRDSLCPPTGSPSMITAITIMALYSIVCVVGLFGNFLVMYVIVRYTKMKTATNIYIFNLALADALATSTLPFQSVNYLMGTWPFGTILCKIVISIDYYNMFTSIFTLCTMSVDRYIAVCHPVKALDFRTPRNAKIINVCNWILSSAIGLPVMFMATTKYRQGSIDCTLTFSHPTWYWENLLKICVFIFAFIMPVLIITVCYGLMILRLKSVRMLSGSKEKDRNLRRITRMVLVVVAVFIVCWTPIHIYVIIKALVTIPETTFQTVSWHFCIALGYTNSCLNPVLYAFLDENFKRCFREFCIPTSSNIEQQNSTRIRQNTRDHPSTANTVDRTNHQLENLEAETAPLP
Chain of 5-hydroxytryptamine receptor 2B (P41595 whole entry): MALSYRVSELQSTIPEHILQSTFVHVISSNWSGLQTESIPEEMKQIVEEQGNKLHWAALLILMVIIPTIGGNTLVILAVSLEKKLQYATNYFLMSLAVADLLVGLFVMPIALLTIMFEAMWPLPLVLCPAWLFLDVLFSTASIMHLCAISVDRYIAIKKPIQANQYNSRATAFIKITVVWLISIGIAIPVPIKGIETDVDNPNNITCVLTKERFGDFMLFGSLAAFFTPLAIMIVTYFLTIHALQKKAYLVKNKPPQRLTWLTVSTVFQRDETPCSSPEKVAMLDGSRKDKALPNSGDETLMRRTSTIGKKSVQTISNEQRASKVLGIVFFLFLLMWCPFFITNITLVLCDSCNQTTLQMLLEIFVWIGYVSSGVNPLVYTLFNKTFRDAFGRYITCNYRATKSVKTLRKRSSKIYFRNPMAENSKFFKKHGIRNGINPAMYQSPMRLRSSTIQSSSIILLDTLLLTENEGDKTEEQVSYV

Structure (SMILES) | AC50 [1] [µM] | AC50 (Estrogen receptor) [µM] | AC50 (Progesterone receptor [2]) [µM] | AC50 [3] [µM] | AC50 (Cannabinoid receptor 1) [µM] | AC50 (Glucocorticoid receptor) [µM] | AC50 (Mu-type opioid receptor) [µM] | AC50 (Progesterone receptor [4]) [µM] | AC50 [5] [µM]
NCC(CC(=O)O)c1ccccc1 (stereo not drawn) [PHENIBUT] | > 30 | > 30 | > 30 |  |  |  |  |  | 
CCC(C)C(CC)C(N)=O (stereo not drawn) [VALNOCTAMIDE] |  |  |  | > 30 | > 30 | > 30 | > 30 | > 30 | 
C=CCSCC1Nc2cc(Cl)c(S(N)(=O)=O)cc2S(=O)(=O)N1 (stereo not drawn) [ALTHIAZIDE] | > 30 |  | > 30 |  |  |  |  |  | 
NC(=O)OCC(O)COc1ccc(Cl)cc1 (stereo not drawn) [CHLORPHENESIN CARBAMATE] | > 30 | > 30 | > 30 |  |  |  |  |  | 
C[C@H](Cc1cc2c(c(C(N)=O)c1)N(CCCO)CC2)NCCOc1ccccc1OCC(F)(F)F [SILODOSIN] | > 30 | > 30 | > 30 |  |  |  |  |  | 
Cc1cc(C(C)(C)C)cc(C)c1CC1=NCCN1 [XYLOMETAZOLINE] |  |  |  | > 30 | > 30 | > 30 | > 30 | > 30 | 
CCOC(=O)C1=C[C@]2(CC)CCCN3CCc4c(n1c1ccccc41)[C@@H]32 [VINPOCETINE] |  |  |  | > 30 | > 30 | > 30 | > 30 | > 30 | 
CCN(CCCc1ccccc1)CCCc1ccccc1 [ALVERINE] | 0.198 | > 30 | > 30 |  |  |  |  |  | 
CCN(CC)C(=S)S [DITIOCARB] | > 1 | > 30 | > 30 |  |  |  |  |  | 
C/N=C(\NC)NCc1ccccc1 [BETHANIDINE] |  |  |  | > 30 | > 30 | > 30 | > 30 | > 30 | > 30
